Where two headings read alike, the source gives them in different places. Positions of bridges follow the written chain, without caps; N, C: chain ends. Non-standard residues stand in square brackets, D forms with d. Residues, ends and D or L forms follow the SMILES beside them. *: point of attachment. Myristoyl = CCCCCCCCCCCCCC(=O)*; R8 = C=CCCCCCC[C@@](C)(N)C(=O)O; R5 = C=CCCC[C@@](C)(N)C(=O)O; S5 = C=CCCC[C@](C)(N)C(=O)O

As usually defined, the Kd is the constant that tells how readily two partners part at equilibrium. Usually Ki stands for a dissociation constant, usually derived from enzyme kinetics or from competition with a known ligand.

For one data set, the target named is T1, trypsin (Bos taurus, UniProt P00760).
T1 construct: purchased ThermoFisher
T1 sequence (P00760 24-246): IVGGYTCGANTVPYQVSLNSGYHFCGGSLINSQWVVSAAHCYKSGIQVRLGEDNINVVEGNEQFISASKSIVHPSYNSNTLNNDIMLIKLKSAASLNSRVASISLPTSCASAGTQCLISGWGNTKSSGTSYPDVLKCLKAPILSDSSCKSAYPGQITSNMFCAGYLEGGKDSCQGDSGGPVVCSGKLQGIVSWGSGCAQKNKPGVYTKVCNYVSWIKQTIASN
Put plainly: In vitro trypsin digest assay (trypsin-agarose beads, LC-MS). It counts as in vitro ADME. The note with it: trypsin-agarose beads in physiological buffer, read-out: t1/2 in trypsin digest (protease resistance) (converted). How it is done: Assays were performed using trypsin-agarose beads (ThermoFisher) and measurement of peptide concentration using LC-MS. Peptide half-lives were calculated using GraphPad Prism software.
Trypsin-agarose beads were used to test the potential cleavage of peptides in a physiological buffer and LC-MS was used as the analytical method to determine peptide concentration.

The target in data set [1] is T2, FAK FAT domain (biotinylated Avitag-FAT protein) (Homo sapiens, UniProt Q05397).
T2 construct: biotinylated Avitag-FAT protein was diluted in running buffer
T2 sequence (Q05397 914-1045 limits assumed): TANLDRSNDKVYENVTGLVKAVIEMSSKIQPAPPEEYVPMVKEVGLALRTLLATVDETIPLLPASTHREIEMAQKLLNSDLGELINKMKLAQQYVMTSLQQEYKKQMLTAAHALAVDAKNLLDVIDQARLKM
As to the kind of experiment: Surface plasmon resonance (SPR) binding to immobilised FAT protein. The note with it: for Kd: FAT protein immobilised, peptide 200 μM-0.01 μM, 1:1 binding model, read-out: SPR KD; for binding and inhibitory properties (SPR/FP) in words, compared to 1907: SAR discussion of SPR and FP data. Here is the method:
SPR binding studies were performed on a ForteBio Pioneer FE SPR system. In brief, a SADH Streptavidin in Dextran Hydrogel biosensor (ForteBio) was docked onto the flow cell and preconditioned with two injections of 10 mM NaOH, 1 M NaCl for 1 min at 50 μL/min. […] Empty channel 2 served as the reference control. After achieving a stable baseline, a concentration series (200 μM-0.01 μM) of peptide was prepared in final running buffer (100 mM Tris-HCl, 200 mM NaCl, 0.05% Tween-20, 5% DMSO) and injected using the OneStep gradient injection method at a flow rate of 75 μL/min. […] Raw SPR data were appropriately processed in Qdat software (ForteBio) by normalizing the baseline prior to injection, aligning the channels, subtraction of the reference channel, and blank subtraction. Kinetic data were fitted to a pseudo-first order 1:1 interaction binding model using to calculate KD. In addition, a steady-state model and Req data points were used to validate the binding affinity. Visual inspection of the SPR sensograms was performed to verify appropriate model fitting, lack of mass transport effects, return to baseline, and lack of irregular kinetics.
For orientation: SPR reads the build-up and loss of mass on a sensor chip optically.

The target in data set [2] is T3, FAK FAT domain (paxillin-FAT binding) (Homo sapiens, UniProt Q05397).
T3 construct: FP Buffer containing 20 μM FAT and 0.1 μM TAMRA-LD2
T3 sequence (Q05397 914-1045 limits assumed): T2 sequence (Q05397 914-1045 limits assumed)
Put plainly: Competition fluorescence polarization (FP) assay, inhibition of TAMRA-LD2 binding to FAT. As to conditions: read-out: FP Ki. Here is the method: The FP assay buffer used was 20 mM Tris, 200 mM NaCl, 0.05% β-me, 0.1% Triton X-100, 5% glycerol, and 1× Halt protease inhibitor cocktail. […] Bodipy TMR FP optical module (2100-4100) was used as the mirror.
Wells with no FAT were used as a baseline value which was subtracted from the raw values to produce ΔmP values. The plate was read at every hour for four hours to test for time differences in IC50. The titration data was processed through GraphPad Prism to produce a dose response curve and a calculated IC50 with standard error (SE). A four-parameter dose-response inhibition model was utilized and the bottom fit was constrained to the lower plateau of the curve. Ki was determined from the following calculation:
P0 is the concentration of free protein and KD is calculated from the saturation curve. 150 is calculated by the following equation:
where PT is the total protein concentration, LT is the total labeled-ligand concentration, P0 is the positive root of P0^2+(KD+LT)*P0−PT, PL0=P−P0, PL50=PL0/2, L0=LT-PL0, and L50=LT-PL50.

Data set [3] concerns SK-MEL-103 melanoma cells. Put plainly: 3D Matrigel-on-top proliferation assay. It counts as cell-based. The note with it: SK-MEL-103 melanoma cells, 3D Matrigel-on-top. Here is the method:
B. Competition FP experiment with 1907 showing inhibition of TAMRA-LD2 binding to FAT. C. SPR binding and selectivity analysis using WT FAT and Mutant FAT (L994E, 1936A) at the helix-protein interface. D. Flow cytometry analysis of Rhodamine-1907 (10 μM) cellular uptake in MDA-MB-453 breast cancer cells. E. Boyden-chamber invasion assays in SK-MEL-103 melanoma cells. F. 3D Matrigel-on-top proliferation assays in SK-MEL-103 melanoma cells.
B. 3D structure of negative control molecule (UACC-2020). C. 3D Matrigel-on-top cell proliferation data of stapled peptides in SK-MEL-103 melanoma cells.
A negative control myristoylated peptide (2020) was designed and synthesized based on non-active molecule 2014. Experiments were conducted to test the efficacy of these peptides in 3D proliferation assays using SK-MEL-103 melanoma cells. […] Furthermore, 2012 had no effects on the proliferation of normal HUVEC cells (IC50=NA) (FIG. 7).

Data set [4] concerns the target T2, FAK FAT domain (biotinylated Avitag-FAT protein). Put plainly: Surface plasmon resonance (SPR) binding to immobilised FAT protein. The note with it: two-site binding model.
Data set [5] addresses T4, biotinylated Avitag-FAT protein (UniProt Q05397 919-1052, limits assumed, biotinylated (Avitag)).
T4 construct: domain: FAT; Immobilised on a streptavidin sensor for SPR; also called WT FAT; FAT domain of FAK; not shown: Avitag
T4 sequence (looked up): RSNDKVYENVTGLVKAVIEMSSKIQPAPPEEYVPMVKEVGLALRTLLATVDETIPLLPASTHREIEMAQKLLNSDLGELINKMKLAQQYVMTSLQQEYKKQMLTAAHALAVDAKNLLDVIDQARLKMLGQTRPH
Put plainly: SPR, biotinylated Avitag-FAT immobilised. How it is done:
SPR binding studies were performed on a ForteBio Pioneer FE SPR system. In brief, a SADH Streptavidin in Dextran Hydrogel biosensor (ForteBio) was docked onto the flow cell and preconditioned with two injections of 10 mM NaOH, 1 M NaCl for 1 min at 50 μL/min. […] Empty channel 2 served as the reference control. After achieving a stable baseline, a concentration series (200 μM-0.01 μM) of peptide was prepared in final running buffer (100 mM Tris-HCl, 200 mM NaCl, 0.05% Tween-20, 5% DMSO) and injected using the OneStep gradient injection method at a flow rate of 75 μL/min. 3% sucrose was utilized as a bulk standard control for OneStep injection and a DMSO calibration curve was performed using a concentration range of 3.5% to 6.5% DMSO. Raw SPR data were appropriately processed in Qdat software (ForteBio) by normalizing the baseline prior to injection, aligning the channels, subtraction of the reference channel, and blank subtraction. Kinetic data were fitted to a pseudo-first order 1:1 interaction binding model using to calculate KD. In addition, a steady-state model and Req data points were used to validate the binding affinity. Visual inspection of the SPR sensograms was performed to verify appropriate model fitting, lack of mass transport effects, return to baseline, and lack of irregular kinetics.

With `CC(=O)N[C@@H](CC(N)=O)C(=O)N[C@@H](CC(C)C)C(=O)N[C@@H](CO)C(=O)N[C@@H](CCC(=O)O)C(=O)N[C@@H](CC(C)C)C(=O)N[C@@H](CC(=O)O)C(=O)N[C@@H](CCCNC(=N)N)C(=O)N[C@@H](CC(C)C)C(=O)N[C@@H](CC(C)C)C(=O)N[C@@H](CC(C)C)C(=O)N[C@@H](CCC(=O)O)C(=O)N[C@@H](CC(C)C)C(=O)N[C@@H](CC(N)=O)C(N)=O` [Peptide 1967, reference compound], the half-life on trypsin is 41.4 min. For the molecule `CCCCCCCCCCCCCC(=O)N[C@@H](CC(N)=O)C(=O)N[C@@H](CC(C)C)C(=O)N[C@]1(C)CCCCCCC=CCCC[C@@](C)(C(=O)N[C@@H](CCC(=O)O)C(=O)N[C@@H](CCC(=O)O)C(=O)N[C@@H](CC(N)=O)C(N)=O)NC(=O)[C@H](CC(C)C)NC(=O)[C@H](CC(C)C)NC(=O)[C@H](CCCNC(=N)N)NC(=O)[C@H](CC(=O)O)NC(=O)[C@H](CCC(=O)O)NC(=O)[C@H](CCC(=O)O)NC1=O` [Peptide 2020, Myristoyl-NLR8EEDRLLS5EEN-NH2] (Myristoyl-NL[R8]EEDRLL[S5]EEN-NH2; staple 3-10), the dissociation constant (Kd) in data set [1] was greater than 200 µM. The Ki in data set [2] was greater than 1250 µM. For the same molecule, the “3D proliferation IC50” value in data set [3] is on record as “no effect”.

For the molecule `CC(=O)N[C@@H](CC(N)=O)C(=O)N[C@@H](CC(C)C)C(=O)N[C@@H](CO)C(=O)N[C@@H](CCC(=O)O)C(=O)N[C@]1(C)CCCC=CCCC[C@@](C)(C(=O)N[C@@H](CC(C)C)C(=O)N[C@@H](CC(C)C)C(=O)N[C@@H](CCC(=O)O)C(=O)N[C@@H](CC(C)C)C(=O)N[C@@H](CC(N)=O)C(N)=O)NC(=O)[C@H](CCCNC(=N)N)NC(=O)[C@H](CC(=O)O)NC1=O` [Peptide 2022, Ac-NLSER5DRS5LLELN-NH2] (Ac-NLSE[R5]DR[S5]LLELN-NH2; staple 5-8), in data set [1], the Kd amounted to 911 µM; the “binding and inhibitory properties (SPR/FP) in words, compared to 1907” value is “did not show much activity compared to 1907”. In data set [2], the Ki is 341 µM. Take `CC(=O)N[C@@H](CC(N)=O)C(=O)N[C@]1(C)CCCC=CCCC[C@@](C)(C(=O)N[C@@H](CC(=O)O)C(=O)N[C@@H](CCCNC(=N)N)C(=O)N[C@@H](CC(C)C)C(=O)N[C@@H](CC(C)C)C(=O)N[C@@H](CC(C)C)C(=O)N[C@@H](CCC(=O)O)C(=O)N[C@@H](CC(C)C)C(=O)N[C@@H](CC(N)=O)C(N)=O)NC(=O)[C@H](CCC(=O)O)NC(=O)[C@H](CO)NC1=O` [Peptide 2024] (Ac-N[R5]SE[S5]DRLLLELN-NH2; staple 2-5): in data set [1], the Kd is greater than 200 µM; the “binding and inhibitory properties (SPR/FP) in words, compared to 1907” value was “did not show much activity compared to 1907”. In addition, in data set [2], the Ki was 412 µM. As for `CC(=O)N[C@@H](CC(N)=O)C(=O)N[C@@H](CC(C)C)C(=O)N[C@]1(C)CCCCCCC=CCCC[C@@](C)(C(=O)N[C@@H](CCC(=O)O)C(=O)N[C@@H](CC(C)C)C(=O)N[C@@H](CC(N)=O)C(N)=O)NC(=O)[C@H](CC(C)C)NC(=O)[C@H](CC(C)C)NC(=O)[C@H](CCCCN)NC(=O)[C@H](CC(=O)O)NC(=O)[C@H](CC(C)C)NC(=O)[C@H](CCC(=O)O)NC1=O` [Peptide 2028, Ac-NLR8ELDKLLS5ELN-NH2] (Ac-NL[R8]ELDKLL[S5]ELN-NH2; staple 3-10), the Kd in data set [4] (SPR KD (1), site (1)) came to 1.36 µM; in data set [4] (read-out: SPR KD (2), site (2)) it was 10.9 µM.

B1: 1920 (peptide)
peptide: Ac-SLGSNL[R8]ELDRLL[S5]ELNAVQH-NH2
modifications: staple 7-14
SMILES: CC(=O)N[C@@H](CO)C(=O)N[C@@H](CC(C)C)C(=O)NCC(=O)N[C@@H](CO)C(=O)N[C@@H](CC(N)=O)C(=O)N[C@@H](CC(C)C)C(=O)N[C@]1(C)CCCCCCC=CCCC[C@@](C)(C(=O)N[C@@H](CCC(=O)O)C(=O)N[C@@H](CC(C)C)C(=O)N[C@@H](CC(N)=O)C(=O)N[C@@H](C)C(=O)N[C@H](C(=O)N[C@@H](CCC(N)=O)C(=O)N[C@@H](Cc2c[nH]cn2)C(N)=O)C(C)C)NC(=O)[C@H](CC(C)C)NC(=O)[C@H](CC(C)C)NC(=O)[C@H](CCCNC(=N)N)NC(=O)[C@H](CC(=O)O)NC(=O)[C@H](CC(C)C)NC(=O)[C@H](CCC(=O)O)NC1=O
B1 had an equilibrium dissociation constant (Kd) in data set [5] of 6.95 µM. Ac-[R8]ELDRLL[S5]-NH2 (staple 1-8) [2011] came in with a dissociation constant Kd in data set [5] greater than 200 µM.

B2: 2014 (peptide)
peptide: Ac-NL[R8]EEDRLL[S5]EEN-NH2
modifications: staple 3-10
SMILES: CC(=O)N[C@@H](CC(N)=O)C(=O)N[C@@H](CC(C)C)C(=O)N[C@]1(C)CCCCCCC=CCCC[C@@](C)(C(=O)N[C@@H](CCC(=O)O)C(=O)N[C@@H](CCC(=O)O)C(=O)N[C@@H](CC(N)=O)C(N)=O)NC(=O)[C@H](CC(C)C)NC(=O)[C@H](CC(C)C)NC(=O)[C@H](CCCNC(=N)N)NC(=O)[C@H](CC(=O)O)NC(=O)[C@H](CCC(=O)O)NC(=O)[C@H](CCC(=O)O)NC1=O
notes: non-active molecule
Molecule B2 returned an equilibrium dissociation constant (Kd) in data set [5] greater than 200 µM.

The record behind these values is US20260265304A1, “PEPTIDE INHIBITORS OF FOCAL ADHESION KINASE ACTIVITY AND USES THEREOF” (Arizona Board of Regents on Behalf of the University of …, priority 2019, published 2026).
